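Following 48 hours of exposure in 96-well plates, responses at five concentrations were used to interpolate endpoints linearly. GI50 is the concentration that inhibits growth by half. TGI: concentration producing complete growth inhibition.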
Key:
Assay in all cases: inhibition of tumour cell growth, NCI panel, 48 h
M14 melanoma = test system: M14 melanoma
K-562 leukemia = test system: K-562 leukemia
SN12C renal = test system: SN12C renal
NCI-H226 lung = test system: NCI-H226 lung
OVCAR-8 ovarian = test system: OVCAR-8 ovarian
LOX IMVI melanoma = test system: LOX IMVI melanoma
SF-539 CNS = test system: SF-539 CNS
U251 CNS = test system: U251 CNS
HCT-15 colon = test system: HCT-15 colon
CAKI-1 renal = test system: CAKI-1 renal

Row | SMILES | TGI (M14 melanoma) [µM] | TGI (K-562 leukemia) [µM] | TGI (SN12C renal) [µM] | TGI (NCI-H226 lung) [µM] | TGI (OVCAR-8 ovarian) [µM] | TGI (LOX IMVI melanoma) [µM] | TGI (SF-539 CNS) [µM] | TGI (U251 CNS) [µM] | TGI (HCT-15 colon) [µM] | GI50 (U251 CNS) [nM] | GI50 (CAKI-1 renal) [nM] | TGI (CAKI-1 renal) [µM] | GI50 (M14 melanoma) [nM] | GI50 (SN12C renal) [nM] | GI50 (NCI-H226 lung) [nM] | GI50 (OVCAR-8 ovarian) [nM] | GI50 (LOX IMVI melanoma) [nM] | GI50 (SF-539 CNS) [nM] | GI50 (HCT-15 colon) [nM] | GI50 (K-562 leukemia) [nM]
1 | O=c1[nH]c2cc(Cl)ccc2nc1/C(=N\O)C(O)c1cccc([N+](=O)[O-])c1 (stereo not given) | > 100 | > 100 | > 100 | > 100 | > 100 | > 100 | > 100 | – | – | – | – | – | – | – | – | – | – | – | – | –
2 | CN1C(=Nc2ccccc2)SC1=Nc1ccccc1 | > 100 | > 100 | – | > 100 | > 100 | > 100 | > 100 | > 100 | > 100 | – | – | – | – | – | – | – | – | – | – | –
3 | COc1cc(NC(C)CCCNC2CN3CCC2CC3)c2ncccc2c1 (stereo not given) | 13.5 | – | 29.4 | 27.7 | 30.1 | 25 | 30.5 | 24 | 27.3 | 10600 | 13400 | 38.9 | 3920 | 14100 | 13600 | 13700 | 9600 | 15200 | 11500 | –
4 | COc1cnc2c(c1)C(=O)c1c-2n(CCCn2ccnc2)c(=O)c2cc(F)ccc12 | 0.635 | – | > 100 | 0.213 | 13.9 | 0.128 | 0.195 | 0.179 | 1.56 | < 10 | – | – | < 10 | < 10 | 25.1 | 15.1 | < 10 | 24.5 | 155 | –
5 | COc1ccc2n[se]nc2c1 | > 100 | > 100 | > 100 | – | > 100 | > 100 | 54.3 | > 100 | > 100 | – | – | > 100 | – | – | – | – | – | – | – | –
6 | Clc1ccc(C2SCc3nc4ccccc4n32)c(Cl)c1 (stereo not given) | 28 | 39.6 | 28.1 | 30.4 | 32.1 | 29.4 | 31.4 | 32 | 37.5 | – | – | – | – | – | – | – | – | – | – | –
7 | CN(C)CC/C(=N\Nc1ccc([N+](=O)[O-])cc1)c1ccccc1 | 30.8 | 15.9 | 23.8 | – | 27.1 | 18.1 | 20.3 | 25.5 | 27.2 | – | – | – | – | – | – | – | – | – | – | –
8 | O=C(O)C(SC(=S)c1ccc(C(=S)SC(C(=O)O)c2ccccc2)cc1)c1ccccc1 (stereo not given) | > 100 | > 100 | > 100 | > 100 | > 100 | > 100 | > 100 | > 100 | > 100 | – | – | – | – | – | – | – | – | – | – | –
9 | COC(=O)C1(C)CCC(c2ccc(C)cc2)=C(CC(=O)O)C1 (stereo not given) | > 100 | > 100 | > 100 | – | > 100 | > 100 | > 100 | > 100 | > 100 | – | – | – | – | – | – | – | – | – | – | –
10 | CCOC(=O)N1CCN(C=S)CC1 | > 100 | > 100 | > 100 | – | > 100 | > 100 | > 100 | > 100 | > 100 | – | – | – | – | – | – | – | – | – | – | –
11 | CCOc1ccc2c(c1)[n+]([O-])c(-c1ccc(Cl)cc1)c(N)[n+]2[O-] | > 100 | > 100 | > 100 | > 100 | > 100 | – | > 100 | > 100 | > 100 | – | – | > 100 | – | – | – | – | – | – | – | –
12 | CC(C)C1CC[C@@H](C)C[C@@]1(O)CC(N)=O (stereo not given in full) | > 100 | > 100 | > 100 | > 100 | > 100 | – | > 100 | > 100 | > 100 | – | – | > 100 | – | – | – | – | – | – | – | –
13 | Cc1ccc(S(=O)(=O)N/N=C/c2c(O)ccc3ccccc23)cc1 | 64.9 | > 100 | > 100 | – | > 100 | > 100 | 41.8 | > 100 | > 100 | – | – | 35.3 | – | – | – | – | – | – | – | –
14 | COc1ccc(C(=O)OC2C(OC3C(O)COC(O[C@H]4C[C@H]5[C@@H]6CC=C7C[C@@H](O)CC[C@]7(C)[C@H]6CC[C@]5(C)[C@H]4[C@H](C)C(=O)CCC(C)C)C3OC(N)=O)OCC(O)C2O)cc1 (stereo not given in full) | 0.183 | 0.3 | 7.04 | – | 9.27 | 0.158 | 0.0685 | 3.32 | 5.44 | < 3 | 102 | 0.975 | 36 | 2610 | – | 3140 | 13.7 | < 3 | 1040 | 9.24
15 | CC(C)(C)OC(=O)N1CCN(CCn2cc(C(F)(F)F)c3c(Cl)ncnc32)CC1 | 3.49 | 14.1 | 15.1 | 43.3 | 3.76 | 3.24 | 26.1 | 3.57 | 3.94 | 2010 | – | – | 1770 | 4050 | 20000 | 2060 | 1730 | 12800 | 1940 | 3220
16 | C[C@H]1[C@H](C)CC[C@]2(CO)CC[C@]3(C)C(=CC[C@@H]4[C@@]5(C)CCCNC(C)(C)[C@@H]5CC[C@]43C)[C@H]12 | 3.12 | 2.02 | 3.11 | – | 3.61 | 3.05 | 3.16 | 3.15 | 2.75 | 1670 | 1620 | 3.23 | 1610 | 1640 | – | 1960 | 1590 | 1690 | 1370 | 471
17 | COC(=O)N/N=C(\Cc1ccccc1)CN(C)C | > 100 | > 100 | – | – | > 100 | > 100 | > 100 | > 100 | – | – | – | – | – | – | – | – | – | – | – | –
18 | c1ccc2[nH]c(-c3ccc(-c4nccc5c4[nH]c4ccccc45)cc3)nc2c1 | 3.57 | 5.47 | – | 5.56 | 13.5 | – | 3.68 | 7.83 | 5.61 | 2740 | 2410 | 7.11 | 1790 | – | 2270 | 3300 | – | 1890 | 2220 | 2340
19 | O=C1c2ccccc2C(O)(O)C1(O)C1(O)C(=O)c2ccccc2C1(O)O (stereo not given) | > 100 | – | 30.6 | > 100 | > 100 | 58.3 | > 100 | > 100 | 44.1 | – | – | > 100 | – | – | – | – | – | – | – | –
20 | CC(=O)CC(=O)OC1CC(C)CCC1C(C)C (stereo not given) | > 100 | > 100 | > 100 | – | > 100 | > 100 | > 100 | > 100 | > 100 | – | – | > 100 | – | – | – | – | – | – | – | –
21 | COC1CC(OS(=O)(=O)c2ccc([N+](=O)[O-])cc2)C(OC(=O)c2ccccc2)C(C)O1 (stereo not given) | > 100 | > 100 | > 100 | – | > 100 | > 100 | > 100 | > 100 | > 100 | – | – | > 100 | – | – | – | – | – | – | – | –
22 | COc1cc(C(=O)O[C@H](C(=O)NCCCCCNC(=O)[C@@H](OC(=O)c2cc(OC)cc3c(C)cccc23)[C@]2(C)CO2)[C@]2(C)CO2)c2cccc(C)c2c1 | 0.305 | > 36.3 | 1.15 | 4.09 | – | < 0.0138 | 0.587 | 0.3 | 2.13 | < 10 | 355 | 1.89 | – | 364 | 930 | – | < 10 | 119 | 174 | 437
23 | O=C(O)C(/C=C/c1ccccc1)c1ccccc1 (stereo not given) | > 100 | > 100 | > 100 | > 100 | > 100 | > 100 | > 100 | > 100 | > 100 | – | – | – | – | – | – | – | – | – | – | –
24 | COc1cc([N+](=O)[O-])c(OC)cc1-c1nc2sc(Cl)cn2c1/C(N)=N/C(=N)N | 13 | > 100 | 4.29 | 53.9 | – | > 100 | 50.8 | > 100 | > 100 | 3410 | 39000 | > 100 | 3510 | 1910 | 20900 | – | 4440 | 4530 | 65000 | 2010
25 | Oc1c(C(Nc2cccc3cccnc23)c2ccccc2)ccc2cccnc12 (stereo not given) | – | > 100 | > 100 | 9.79 | 21.3 | > 100 | 39 | – | – | – | – | > 100 | – | – | – | – | – | – | – | –
26 | CCOC(=O)NC(=O)c1cn(CCOC(=O)CCCCCCCCC(=O)OCCn2cc(C(=O)NC(=O)OCC)c(=O)[nH]c2=O)c(=O)[nH]c1=O | > 100 | > 100 | > 100 | > 100 | > 100 | > 100 | > 100 | – | > 100 | – | – | > 100 | – | – | – | – | – | – | – | –
27 | CN(CCCn1c2c(c3ccccc3c1=O)C(=O)c1ccccc1-2)CCCn1c2c(c3ccccc3c1=O)C(=O)c1ccccc1-2 | > 22.6 | – | – | > 36.9 | – | – | 0.75 | – | 2.62 | – | 2000 | 24.8 | 2310 | – | 990 | – | – | 181 | 229 | 335
28 | Cc1ccc(Nc2n[nH]c(=S)s2)cc1C | > 100 | > 100 | > 100 | – | > 100 | > 100 | > 100 | > 100 | > 100 | – | – | > 100 | – | – | – | – | – | – | – | –
